Data reported in US10906940B2, “Antimicrobial peptides, pharmaceutical compositions, and methods of use thereof” (priority 2014, dated 2021).
≈ marks a conversion by molar mass, not a printed value. Where a SMILES comes first, the peptide text is derived from it. Bridges are numbered along the chain shown (N, C = ends). [ ]: non-standard residue; d: D form. The star is where a group is joined. Pentadecanoyl = CCCCCCCCCCCCCCC(=O)*; Tridecanoyl = CCCCCCCCCCCCC(=O)*; dOrn = NCCC[C@@H](N)C(=O)O

Legend:
S. aureus 10 = assay: microbe, parasite or virus in culture; assay type: cell-based, Staphylococcus aureus; details: 10
Source text: (§1) The same MIC assay as in Example 6 was used to determine the antimicrobial susceptibility of Compound A, L-form (FIG. 15), and several variants. One variant was Compound A, D-form, with D-Lysine at position 7. Compound B is a variant in the fatty acid chain, with a fatty acid chain composition of C15H29O, and having D-Lys at position 7. Compound C is a variant in the fatty acid chain with a fatty acid chain composition of C11H21O, and having D-Lys at position 7. Variant D is a sequence variant with Phe at position 6 of the cyclic peptide, and having D-Lys at position 7. All variants were chemically synthesized.

S. aureus 12 = assay: microbe, parasite or virus in culture; assay type: cell-based, Staphylococcus aureus; details: 12
Source text: as §1

S. aureus 14 = assay: microbe, parasite or virus in culture; assay type: cell-based, Staphylococcus aureus; details: 14
Source text: as §1

S. aureus 19 = assay: microbe, parasite or virus in culture; assay type: cell-based, Staphylococcus aureus; details: 19
Source text: as §1

S. aureus 2 = assay: microbe, parasite or virus in culture; assay type: cell-based, Staphylococcus aureus; details: 2
Source text: as §1

S. aureus 4 = assay: microbe, parasite or virus in culture; assay type: cell-based, Staphylococcus aureus; details: 4
Source text: as §1

S. aureus 6 = assay: microbe, parasite or virus in culture; assay type: cell-based, Staphylococcus aureus; details: 6
Source text: as §1

S. aureus 8 = assay: microbe, parasite or virus in culture; assay type: cell-based, Staphylococcus aureus; details: 8
Source text: as §1

E. faecium ATCC 2320 = assay: microbe, parasite or virus in culture; assay type: cell-based; details: ATCC 2320
Source text: as §1

E. faecium ATCC 700221 = assay: microbe, parasite or virus in culture; assay type: cell-based; details: ATCC 700221
Source text: as §1

E. faecium BAA-2318 = assay: microbe, parasite or virus in culture; assay type: cell-based; details: BAA-2318
Source text: as §1

E. faecalis ATCC 51575 = assay: microbe, parasite or virus in culture; assay type: cell-based, Enterococcus faecalis; details: ATCC 51575
Source text: as §1

[1] = system: K. pneumonia CVM 15105 (shv5); assay type: cell-based, Klebsiella pneumoniae
Source text: as §1

[2] = system: K. pneumonia CVM 40142 (ges-1); assay type: cell-based, Klebsiella pneumoniae
Source text: as §1

[3] = system: K. pneumoniae CVM 15102 (shv5); assay type: cell-based, Klebsiella pneumoniae
Source text: as §1

[4] = system: K. pneumoniae CVM 9246 (shv18, oxa2); assay type: cell-based, Klebsiella pneumoniae
Source text: as §1

E. coli CVM 15100 (mir1) = assay type: cell-based, Escherichia coli
Source text: as §1

E. coli CVM 15103 (tem2) = assay type: cell-based, Escherichia coli
Source text: as §1

E. coli CVM 15104 (shv3) = assay type: cell-based, Escherichia coli
Source text: as §1

[5] = system: E. coli CVM 35778 (ctx-m-2); assay type: cell-based, Escherichia coli
Source text: as §1

[6] = system: E. coli CVM 40126 (oxa-1); assay type: cell-based, Escherichia coli
Source text: as §1

[7] = system: E. coli CVM 40127 (oxa-2); assay type: cell-based, Escherichia coli
Source text: as §1

[8] = system: E. coli CVM 40128 (oxa-7); assay type: cell-based, Escherichia coli
Source text: as §1

[9] = system: E. coli CVM 40129 (oxa-5); assay type: cell-based, Escherichia coli
Source text: as §1

[10] = system: E. coli CVM 40130 (oxa-9); assay type: cell-based, Escherichia coli
Source text: as §1

[11] = system: E. coli CVM 40131 (ctx-m-2); assay type: cell-based, Escherichia coli
Source text: as §1

[12] = system: E. coli CVM 40132 (ctx-m-9); assay type: cell-based, Escherichia coli
Source text: as §1

[13] = system: E. coli CVM 40133 (ctx-m-14); assay type: cell-based, Escherichia coli
Source text: as §1

[14] = system: E. coli CVM 40134 (ctx-m-15); assay type: cell-based, Escherichia coli
Source text: as §1

[15] = system: E. coli CVM 40136 (tem 52b); assay type: cell-based, Escherichia coli
Source text: as §1

[16] = system: E. coli CVM 40137 (DHA-1); assay type: cell-based, Escherichia coli
Source text: as §1

[17] = system: E. coli CVM 40138 (LCR-1); assay type: cell-based, Escherichia coli
Source text: as §1

[18] = system: E. coli CVM 40139 (fox-1); assay type: cell-based, Escherichia coli
Source text: as §1

[19] = system: E. coli CVM 40141 (imp-1); assay type: cell-based, Escherichia coli
Source text: as §1

[20] = system: E. coli CVM 40143 (act-1); assay type: cell-based, Escherichia coli
Source text: as §1

[21] = system: E. coli CVM 40147 (vim-2); assay type: cell-based, Escherichia coli
Source text: as §1

E. coli CVM40146 (vim-1) = assay type: cell-based, Escherichia coli
Source text: as §1

E. coli CVM40148 (veb-1) = assay type: cell-based, Escherichia coli
Source text: as §1

[22] = system: E. cloacae CVM 15101 (P99); assay type: cell-based, Enterobacter cloacae
Source text: as §1

SMILES | MIC (E. faecium ATCC 2320) [µg/mL] | MIC (E. faecium ATCC 700221) [µg/mL] | MIC (E. faecium BAA-2318) [µg/mL] | MIC (E. faecalis ATCC 51575) [µg/mL] | MIC [1] [µg/mL] | MIC [2] [µg/mL] | MIC [3] [µg/mL] | MIC [4] [µg/mL] | MIC (E. coli CVM 15100 (mir1)) [µg/mL] | MIC (E. coli CVM 15103 (tem2)) [µg/mL] | MIC (E. coli CVM 15104 (shv3)) [µg/mL] | MIC [5] [µg/mL] | MIC [6] [µg/mL] | MIC [7] [µg/mL] | MIC [8] [µg/mL] | MIC [9] [µg/mL] | MIC [10] [µg/mL] | MIC [11] [µg/mL] | MIC [12] [µg/mL] | MIC [13] [µg/mL] | also measured
CCCCCCCCCCCCC(=O)N[C@H](CCCN)C(=O)N[C@H](C(=O)N[C@@H]1C(=O)N[C@H](CCCN)C(=O)N[C@@H](CO)C(=O)N[C@@H](Cc2ccccc2)C(=O)N[C@H](CCCCN)C(=O)N[C@H](CO)C(=O)N[C@@H]([C@@H](C)CC)C(=O)N2CCC[C@H]2C(=O)N[C@@H]([C@@H](C)CC)C(=O)N2CCC[C@H]2C(=O)N[C@@H]([C@@H](C)CC)C(=O)O[C@@H]1C)C(C)C [Variant D] (Tridecanoyl-[dOrn]VT[dOrn]SF[dK][dS]IPIPI; ester 3-C; N-terminus assumed) | 8 (≈ 4.97 µM) | 8 (≈ 4.97 µM) | 8 (≈ 4.97 µM) | 8 (≈ 4.97 µM) | 8 (≈ 4.97 µM) | 8 (≈ 4.97 µM) | 8 (≈ 4.97 µM) | 8 (≈ 4.97 µM) | 8 (≈ 4.97 µM) | 8 (≈ 4.97 µM) | 16 (≈ 9.95 µM) | 16 (≈ 9.95 µM) | 8 (≈ 4.97 µM) | 8 (≈ 4.97 µM) | 8 (≈ 4.97 µM) | 8 (≈ 4.97 µM) | 8 (≈ 4.97 µM) | 8 (≈ 4.97 µM) | 8 (≈ 4.97 µM) | 8 (≈ 4.97 µM) | MIC (S. aureus 10): 8 µg/mL (≈ 4.97 µM); MIC (S. aureus 12): 8 µg/mL (≈ 4.97 µM); MIC (S. aureus 14): 8 µg/mL (≈ 4.97 µM); MIC (S. aureus 19): 8 µg/mL (≈ 4.97 µM); MIC (S. aureus 2): 8 µg/mL (≈ 4.97 µM); MIC (S. aureus 4): 8 µg/mL (≈ 4.97 µM); MIC (S. aureus 6): 8 µg/mL (≈ 4.97 µM); MIC (S. aureus 8): 8 µg/mL (≈ 4.97 µM); MIC [14]: 8 µg/mL (≈ 4.97 µM); MIC [15]: 16 µg/mL (≈ 9.95 µM); MIC [16]: 8 µg/mL (≈ 4.97 µM); MIC [17]: 8 µg/mL (≈ 4.97 µM); MIC [18]: 8 µg/mL (≈ 4.97 µM); MIC [19]: 16 µg/mL (≈ 9.95 µM); MIC [20]: 16 µg/mL (≈ 9.95 µM); MIC [21]: 16 µg/mL (≈ 9.95 µM); MIC (E. coli CVM40146 (vim-1)): 8 µg/mL (≈ 4.97 µM); MIC (E. coli CVM40148 (veb-1)): 8 µg/mL (≈ 4.97 µM); MIC [22]: 8 µg/mL (≈ 4.97 µM)
CCCCCCCCCCCCCCC(=O)N[C@H](CCCN)C(=O)N[C@H](C(=O)N[C@@H]1C(=O)N[C@H](CCCN)C(=O)N[C@@H](CO)C(=O)N[C@@H](Cc2ccc(O)cc2)C(=O)N[C@H](CCCCN)C(=O)N[C@H](CO)C(=O)N[C@@H]([C@@H](C)CC)C(=O)N2CCC[C@H]2C(=O)N[C@@H]([C@@H](C)CC)C(=O)N2CCC[C@H]2C(=O)N[C@@H]([C@@H](C)CC)C(=O)O[C@@H]1C)C(C)C [Compound B] (Pentadecanoyl-[dOrn]VT[dOrn]SY[dK][dS]IPIPI; ester 3-C; N-terminus assumed) | 4 (≈ 2.42 µM) | 4 (≈ 2.42 µM) | 4 (≈ 2.42 µM) | 8 (≈ 4.84 µM) | 16 (≈ 9.68 µM) | 16 (≈ 9.68 µM) | 8 (≈ 4.84 µM) | 8 (≈ 4.84 µM) | 16 (≈ 9.68 µM) | 8 (≈ 4.84 µM) | 16 (≈ 9.68 µM) | 32 (≈ 19.4 µM) | 4 (≈ 2.42 µM) | 16 (≈ 9.68 µM) | 8 (≈ 4.84 µM) | 8 (≈ 4.84 µM) | 8 (≈ 4.84 µM) | 8 (≈ 4.84 µM) | 16 (≈ 9.68 µM) | 16 (≈ 9.68 µM) | MIC (S. aureus 10): 4 µg/mL (≈ 2.42 µM); MIC (S. aureus 12): 4 µg/mL (≈ 2.42 µM); MIC (S. aureus 14): 4 µg/mL (≈ 2.42 µM); MIC (S. aureus 19): 4 µg/mL (≈ 2.42 µM); MIC (S. aureus 2): 4 µg/mL (≈ 2.42 µM); MIC (S. aureus 4): 4 µg/mL (≈ 2.42 µM); MIC (S. aureus 6): 8 µg/mL (≈ 4.84 µM); MIC (S. aureus 8): 4 µg/mL (≈ 2.42 µM); MIC [14]: 8 µg/mL (≈ 4.84 µM); MIC [15]: 8 µg/mL (≈ 4.84 µM); MIC [16]: 16 µg/mL (≈ 9.68 µM); MIC [17]: 8 µg/mL (≈ 4.84 µM); MIC [18]: 16 µg/mL (≈ 9.68 µM); MIC [19]: 16 µg/mL (≈ 9.68 µM); MIC [20]: 16 µg/mL (≈ 9.68 µM); MIC [21]: 16 µg/mL (≈ 9.68 µM); MIC (E. coli CVM40146 (vim-1)): 8 µg/mL (≈ 4.84 µM); MIC (E. coli CVM40148 (veb-1)): 8 µg/mL (≈ 4.84 µM); MIC [22]: 8 µg/mL (≈ 4.84 µM)
CCCCCCCCCCCCC(=O)N[C@H](CCCN)C(=O)N[C@H](C(=O)N[C@@H]1C(=O)N[C@H](CCCN)C(=O)N[C@@H](CO)C(=O)N[C@@H](Cc2ccc(O)cc2)C(=O)N[C@@H](CCCCN)C(=O)N[C@H](CO)C(=O)N[C@@H]([C@@H](C)CC)C(=O)N2CCC[C@H]2C(=O)N[C@@H]([C@@H](C)CC)C(=O)N2CCC[C@H]2C(=O)N[C@@H]([C@@H](C)CC)C(=O)O[C@@H]1C)C(C)C [Compound A L-form] (Tridecanoyl-[dOrn]VT[dOrn]SYK[dS]IPIPI; ester 3-C) | 4 (≈ 2.46 µM) | 4 (≈ 2.46 µM) | 4 (≈ 2.46 µM) | 8 (≈ 4.93 µM) | 8 (≈ 4.93 µM) | 8 (≈ 4.93 µM) | 8 (≈ 4.93 µM) | 8 (≈ 4.93 µM) | 8 (≈ 4.93 µM) | 8 (≈ 4.93 µM) | 8 (≈ 4.93 µM) | 8 (≈ 4.93 µM) | 4 (≈ 2.46 µM) | 8 (≈ 4.93 µM) | 8 (≈ 4.93 µM) | 4 (≈ 2.46 µM) | 8 (≈ 4.93 µM) | 4 (≈ 2.46 µM) | 8 (≈ 4.93 µM) | 8 (≈ 4.93 µM) | MIC [14]: 8 µg/mL (≈ 4.93 µM); MIC [15]: 8 µg/mL (≈ 4.93 µM); MIC [16]: 8 µg/mL (≈ 4.93 µM); MIC [17]: 8 µg/mL (≈ 4.93 µM); MIC [18]: 8 µg/mL (≈ 4.93 µM); MIC [19]: 32 µg/mL (≈ 19.7 µM); MIC [20]: 8 µg/mL (≈ 4.93 µM); MIC [21]: 16 µg/mL (≈ 9.85 µM); MIC (E. coli CVM40146 (vim-1)): 8 µg/mL (≈ 4.93 µM); MIC (E. coli CVM40148 (veb-1)): 8 µg/mL (≈ 4.93 µM); MIC [22]: 8 µg/mL (≈ 4.93 µM)
